Test results taken from US10058587B2, “Peptide composition for cancer treatment by inhibiting TRPV6 calcium channel activity” (priority 2008, dated 2018).
“Also recorded” adds a separate entry of the source. Where no end group is shown, it is not given here.

Assays:
[1] = Repeated dose toxicity study; type: in vivo, NOD/SCID mice
Protocol: In order to investigate repeated dose toxicity, SorC27 at 400 mg/kg formulated in saline was injected (i.p.) into NOD/SCID mice every day for 12 days. The animals were observed cage-side each day and examined at the end of the experimental period.

[2] = Tissue distribution of Cy5.5-labeled peptides by optical imaging; type: in vivo, CD1 mice
Description: SorC13 and SorC27 were labeled with the near-infrared probe, Cy5.5. SorC13 was labeled at lysine-1 and lysine-8 with the infrared fluorescent probe cy5.5 through reaction with Cy5.5 NHS ester-activated process. SorC27 was labeled at the single cysteine thiol with Cy5.5 maleamide-activated reaction. The labeled peptides were purified with a combination of size exclusion chromatography and HPLC. The label, Cy5.5, fluoresces in the infra-red region after excitation with a scanning laser. The low energy laser is able to penetrate the animal to about 1 cm and, thus, by scanning prone and supine positions, the presence of the tagged peptides can be quantified in three dimensions.
Cy5.5-labeled peptides were intravenously injected into CD1 mice (4 for each compound) at 100 ug per animal in 100 uL, and animals were imaged live using an optical imaging system, Optix eXplorer (GE Healthcare Systems) at different time points (30 min, 90 min, 4 h). […] The bio-distribution of the labeled peptides in different organs and tissues were visualized and relatively quantified by optical imaging analysis. This protocol allows for visualization of the location of the labeled peptides and how the location changes over time. […] Nodes that accumulated the labeled peptides are indicated by line 1 (superfacial cervical nodes), line 4 (axillary nodes), line 5 (brachial nodes), line 8 (mesenteric nodes) and line 9 (inguinal nodes). FIGS. 8, 9 and 10 show the amounts of labeled peptides in various organs ex vivo.

[3] = system: MDA-MB-468 (MB 468) breast cancer cell line; test: Induction of apoptosis (APO-ONE caspase 3/7) and cell viability (CellTiter Blue); type: cell-based, human; design: key: decreased (+); or not (−); conditions: SorC27
Protocol: (§1) MCF-7, MDA-MB-231, MDA-MB-415, MDA-MB-468 were grown in DMEM modified with 10% (v/v) fetal bovine serum, 2 mM L-glutamine and 50 ug/mL each of penicillin and streptomycin.
(§2) The levels of apoptotic induction and cell viability were determined by multiplexing the measurements for single samples. CellTiter Blue and APO-ONE assay systems from Promega allows the determination of cell viability correlated to cell number, and induction of apoptosis. This protocol uses a fluorgenic peptide that contains a peptide recognition-sequence for caspase 3 and caspase 7, […] proteolytic enzymes of the apoptosis cascade. The CellTiter Blue reagent was added to wells in a 96-well plate containing cells under test, immediately after addition of peptide solution or vehicle. About 5000 cells were plated into the wells the day before. At the chosen time (Day 1, Day 2 etc.) the fluorescence was measured at 590 nm (emission) after excitation at 560 nm. The caspase 3/7 activity was measured (485 nm Ex/527 nm Em) in the same wells after adding 120 uL of the Apo-ONE reagent, freeze fracturing at −80° C. for 1 hr, and incubating for 1 hr at room temperature.
For this work, the concentrations of SorC13 and SorC27 used were 0 uM, 1 uM, 10 uM and 100 uM. The experiments extended over a 5 to 7 day period. […]

[4] = system: MDA-MB-468 (MB 468) breast cancer cell line; test: as above; type: cell-based, human; design: key: cell viability decreased (+); or not (−)
Protocol: as §1, §2
(§3) For this work, the concentrations of SorC13 and SorC27 used were 0 uM, 1 uM, 10 uM and 100 uM. The experiments extended over a 5 to 7 day period. All measurements were done in quadruplicate with both a blank (no cells) and control (vehicle, no peptide) used to correct the test measurements. The time-response data, and the dose-response data were plotted as means±standard error of the mean. Any statistical comparisons were done with the Student's t-test or by ANOVA analysis over the dose course. The level of statistical significance was considered to be the 95% confidence interval (i.e., p≤0.05).

[5] = system: CaOV3 ovarian cancer cell line; test: as above; type: cell-based, human; design: key to Decline in cell viability: decreased (+); or not (−)
Protocol: CAOV-3 was cultured in Dulbecco's Modified Eagle Medium (4.5 g/L glucose) with 4 mM L-glutamine, 1.5 g/L sodium bicarbonate and 10% (v/v) fetal bovine serum.
as §2, §3
To compare the effect of the two SorC-peptides against the gold-standard treatment for ovarian cancers SorC13 or SorC27 was compared to treatment with a carboplatin and taxol (CAT) cocktail (10 uM Paclitaxel, 20 mM carboplatin) using the APO-ONE assay, which measures the combined activities of caspase 3 and caspase 7. […]

[6] = 400 mg/kg, daily i.p. injection for 12 days

Sequence | toxicity of multiple dose ([1]; 400 mg/kg i.p. each day for 12 days) | Repeated dose in NOD/SCID mice: body weight [1, 6] | Repeated dose in NOD/SCID mice: toxic effects [1, 6] | detectable in tissues after perfusion ([2]; Cy5.5-tagged peptide, 24 hours) | tissue localization ([2]; Cy5.5-tagged peptide, i.v. 100 ug) | tissues with highest percent uptake (of total fluorescence) after perfusion ([2]; Cy5.5 labeled, 4 and 24 hours after i.v. injection) | Decline in cell viability [3] | Decline in cell viability ([4]; SorC13 1 uM) | Decline in cell viability ([4]; SorC13 10 uM) | Decline in cell viability ([4]; SorC13 100 uM) | apoptosis (treatment:control ratio) compared with CAT cocktail ([5]; CAT = 10 uM Paclitaxel, 20 mM carboplatin) | Apoptosis Index (1 = no effect) ([5]; Day5, SorC13 100 uM) | Decline in cell viability ([5]; Day5, SorC13 100 uM)
EGKLSSNDTEGGLCKEFLHPSKVDLPR [SorC27] | no indication of toxicity; also recorded: no toxic effect, weight loss or change in organs on necropsy | No loss of body weight | no toxic effects noted | still detectable | localize predominantly in lymph nodes, lung, liver and kidney | liver, lung and kidney | + |  |  |  |  |  | 
KEFLHPSKVDLPR [SorC13, KEFLHPSKVDLPR] |  |  |  |  |  |  |  | + | + | + | produced earlier and more intense apoptosis cascade than the CAT cocktail | 2.7 | +
